Experiment [1] concerns 4T1 mouse breast cancer. The experiment is described as follows: Antitumor activity of Compound B alone and with anti-PD1 in the 4T1 model, additional experiment. The experiment is classed as in vivo, BALB/c mice. The settings on record: 4T1 tumors; Compound B 15 mg/kg BID po; anti-PD1 10 mg/kg ip BIW; n=7/group; FIG. 6. The protocol:
The antitumor activity of Compound B as a single agent and combined with a mouse anti-PD1 antibody was evaluated in the 4T1 mouse breast cancer model grown in BALB/c mice in an additional experiment. Mice were inoculated subcutaneously in the right flank with 3×10^5 tumor cells. When tumors reached an average size of 97 mm^3 dosing was initiated. The dosing regimens in the 4 separate cohorts comprising 7 mice each are as follows: […]

For experiment [2], the system named is 4T1 mouse breast cancer. The experiment is described as follows: Antitumor activity of Compound B alone and with anti-CTLA4 in the 4T1 model. The experiment is classed as in vivo, BALB/c mice. The settings on record: 4T1 tumors; Compound B 15 mg/kg BID; n=10/group; FIG. 3. The text has this: Mice were inoculated subcutaneously in the right flank with 3×10^5 tumor cells. When tumors reached an average size of 100 mm^3 (7 days after tumor cell inoculation) dosing was initiated.

A further experiment relates to CT26 tumor cells. Kind of experiment: CT26 re-inoculation of complete responders versus tumor-naive mice. The experiment is classed as in vivo. Conditions: complete responders compared with 6 tumor-naive mice. From the text: CT26 tumor cells were inoculated into 6 tumor-naive mice or complete responders of CT26 tumor-bearing mice previously treated with Compound B and anti-PD-1 alone or in combination.

Experiment [3] deals with CT-26 mouse colon adenocarcinoma. The experiment is described as follows: Antitumor activity of Compound B alone and with anti-PD1 in the CT-26 model, additional experiment. The settings on record: CT-26 tumors; Compound B 15 mg/kg BID po; anti-PD1 10 mg/kg ip BIW; n=7/group; FIG. 5. It counts as in vivo, BALB/c mice. The protocol: The antitumor activity of Compound B as a single agent and combined with a mouse anti-PD1 antibody was evaluated in the CT-26 mouse colon adenocarcinoma model grown in BALB/c mice in an additional experiment. Mice were inoculated subcutaneously in the right flank with 5×10^5 tumor cells. When tumors reached an average size of 91 mm^3 dosing was initiated. The dosing regimens in the 4 separate cohorts comprising 7 mice each are as follows: […]

For experiment [4] the test system is unchanged. Kind of experiment: Antitumor activity of Compound B alone and with anti-PD-1 in the CT-26 model. The experiment is classed as in vivo, BALB/c mice. The protocol: The antitumor activity of Compound B as a single agent and combined with a mouse anti-PD-1 antibody was evaluated in the CT-26 mouse colon adenocarcinoma model grown in BALB/c mice. Mice were inoculated subcutaneously in the right flank with 5×10^5 tumor cells. When tumors reached an average size of 71 mm^3 (6 days after tumor cell inoculation) dosing was initiated. The dosing regimens in the 8 separate cohorts comprising 10 mice each are as follows: […]

The subject of the next experiment is CT-26 tumors. The experiment is described as follows: Immune cell composition of CT-26 tumors by flow cytometry. The experiment is classed as in vivo, BALB/c mice. Conditions: after 7 days of dosing, Compound B 15 mg/kg BID, anti-PD1 10 mg/kg Q3D. The protocol: The immune cell composition of Compound B as a single agent and combined with a mouse anti-PD1 antibody was evaluated in the CT-26 mouse colon adenocarcinoma model grown in BALB/c mice. Mice were inoculated subcutaneously in the right flank with 5×10^5 tumor cells. When tumors reached an average size of 85 mm^3 dosing was initiated. The dosing regimens in the 4 separate cohorts comprising 10 mice each are listed as follows:
After dosing animals for 7 days, tumors were resected and used to prepare single cell suspensions. Live cells representing tumor and immune cells were stained with cocktails of antibodies targeting multiple immune cell markers (anti-CD45, anti-CD3, anti-CD4, anti-CD8, anti-CD25, anti-FoxP3, anti-PD-1, anti-CD11c) conjugated to different fluorescent tags. The stained cells were fixed in 4% paraformaldehyde and quantified using a multi-color flow cytometer (Fortessa). The data was analyzed with FloJo software.

[5] abbreviates: 99 days after tumor inoculation.

For `C[C@H](NC(=O)c1cc(Cl)cnc1Oc1cccc(F)c1)c1ccc(C(=O)O)cc1` [Compound B], the “tumor growth kinetics during the period of dosing” value with 4T1 mouse breast cancer [1] was “less than that of the vehicle group and anti-PD1 when dosed alone”; in the experiment with 4T1 mouse breast cancer [2] it was “decreased relative to the vehicle treated mice”; in experiment [3], “less than that of the vehicle group”; in experiment [4] (CT-26 tumors, Compound B 15 mg/kg QD and BID p.o., anti-PD-1 10 mg/kg i.p., n=10/group, FIG. 1), “not notably different from the vehicle treated mice”. For the same molecule, the “growth of re-inoculated CT26 in complete responders” value with CT26 tumor cells was “decreased the growth of CT26 relative to naive mice”. Further, the mice still alive in experiment [4] (setting [5]) is given as 1 out of 10. Further, in experiment [4] (setting [5]), the mice tumor free is 1 out of 10. In the experiment on CT-26 tumors (FIG. 7b), the “percentage of dendritic cells (CD45, CD11c positive)” value was “increased percentage”. For the same molecule, the “regulatory T cells (CD45, CD4, FoxP3, CD25 positive)” value in the experiment on CT-26 tumors (versus vehicle, FIG. 7a) is listed as “significant decrease”.

For the origin of these results see US10973834B2, “EP4 inhibitors and use thereof” (Arrys Therapeutics, Inc., priority 2018, dated 2021).
